Data on 19 compounds can be found in BindingDB's records for doi:10.1007/bfb0000613 (German Institute of Human Nutrition, 1998).

Several values for one entry are separate records, joined by “and”; a condition that tells them apart may be missing. Identical values can stand only once. *1 amine or outer side, *2 acyl side, *3 side chain or, on linkers, in order; H or OH if unused. Where a SMILES comes first, the peptide text is derived from it. Bridges are numbered along the chain shown (N, C = ends). [ ]: non-standard residue; d: D form. ξ: configuration not given here. Phe(4-CH2NHiPr) = CC(C)NCc1ccc(C[C@H](N)C(=O)O)cc1; X2 = CC(C)NCc1ccc(C[C@@H](N[*:1])C(=O)[*:2])cc1; d1Nal = N[C@H](Cc1cccc2ccccc12)C(=O)O; Thr(3ξ) = CC(O)[C@H](N)C(=O)O; ξF = NC(Cc1ccccc1)C(=O)O; ξK = NCCCCC(N)C(=O)O; ξT = CC(O)C(N)C(=O)O; Ahp = NCCCCCCC(=O)O

Assay [1] concerns the target Somatostatin receptor type 4 (Homo sapiens, UniProt P31391).
Assay [2] addresses Somatostatin receptor type 1 (Homo sapiens, UniProt P30872).
Assay [3] concerns the target Somatostatin receptor type 2 (Homo sapiens, UniProt P30874).
Assay [4] has as its target Somatostatin receptor type 2 (Mus musculus, UniProt P30875).
Assay [5] has as its target Somatostatin receptor type 3 (Rattus norvegicus, UniProt P30936).
Assay [6] has as its target Somatostatin receptor type 2 (Rattus norvegicus, UniProt P30680).
The target of assay [7] is Somatostatin receptor type 5 (Homo sapiens, UniProt P35346).
Assay [8] concerns the target T1, Somatostatin receptor type 5 (Rattus norvegicus, UniProt P30938).
T1 sequence (P30938 whole entry): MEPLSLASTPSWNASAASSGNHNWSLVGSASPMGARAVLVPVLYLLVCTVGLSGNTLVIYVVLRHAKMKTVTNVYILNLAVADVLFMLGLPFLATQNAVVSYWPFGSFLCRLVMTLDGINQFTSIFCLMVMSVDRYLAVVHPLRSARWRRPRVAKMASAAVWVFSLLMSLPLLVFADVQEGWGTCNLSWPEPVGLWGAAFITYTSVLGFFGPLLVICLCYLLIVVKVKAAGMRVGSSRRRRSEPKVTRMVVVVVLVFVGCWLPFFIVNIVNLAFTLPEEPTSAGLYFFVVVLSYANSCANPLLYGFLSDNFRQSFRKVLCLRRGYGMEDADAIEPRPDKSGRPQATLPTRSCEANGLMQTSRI

Sequence of Somatostatin receptor type 4 (P31391 whole entry): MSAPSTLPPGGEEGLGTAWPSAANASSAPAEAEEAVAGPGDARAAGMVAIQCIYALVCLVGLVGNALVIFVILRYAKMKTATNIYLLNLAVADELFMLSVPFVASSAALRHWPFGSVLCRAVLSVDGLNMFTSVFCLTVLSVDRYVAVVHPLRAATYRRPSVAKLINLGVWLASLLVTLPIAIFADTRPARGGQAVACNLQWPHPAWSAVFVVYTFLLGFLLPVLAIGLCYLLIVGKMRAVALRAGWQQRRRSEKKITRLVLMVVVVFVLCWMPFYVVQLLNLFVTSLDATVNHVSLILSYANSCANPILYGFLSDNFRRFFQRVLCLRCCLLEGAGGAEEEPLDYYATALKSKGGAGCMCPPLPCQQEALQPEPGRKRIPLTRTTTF
Sequence of Somatostatin receptor type 5 (Homo sapiens, UniProt P35346) (P35346 whole entry): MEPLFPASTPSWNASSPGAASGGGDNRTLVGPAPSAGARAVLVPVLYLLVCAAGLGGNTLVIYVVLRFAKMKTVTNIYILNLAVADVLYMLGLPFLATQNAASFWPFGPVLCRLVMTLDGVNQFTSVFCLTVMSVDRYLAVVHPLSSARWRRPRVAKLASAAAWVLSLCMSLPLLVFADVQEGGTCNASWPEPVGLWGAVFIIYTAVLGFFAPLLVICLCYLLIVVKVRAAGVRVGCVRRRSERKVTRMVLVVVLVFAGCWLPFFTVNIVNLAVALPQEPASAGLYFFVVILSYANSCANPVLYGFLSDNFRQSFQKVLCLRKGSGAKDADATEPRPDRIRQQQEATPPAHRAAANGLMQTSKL
Sequence of Somatostatin receptor type 1 (P30872 whole entry): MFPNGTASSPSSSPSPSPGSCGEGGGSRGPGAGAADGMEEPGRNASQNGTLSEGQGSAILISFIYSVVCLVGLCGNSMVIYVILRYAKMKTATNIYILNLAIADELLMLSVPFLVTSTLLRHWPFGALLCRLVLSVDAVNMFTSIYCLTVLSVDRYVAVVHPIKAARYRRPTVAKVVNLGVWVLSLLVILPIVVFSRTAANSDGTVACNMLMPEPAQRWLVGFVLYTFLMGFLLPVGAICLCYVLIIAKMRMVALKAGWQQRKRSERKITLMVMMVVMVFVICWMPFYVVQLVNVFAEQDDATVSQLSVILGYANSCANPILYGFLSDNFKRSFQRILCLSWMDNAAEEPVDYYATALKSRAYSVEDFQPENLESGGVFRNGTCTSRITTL
Sequence of Somatostatin receptor type 2 (Mus musculus, UniProt P30875) (P30875 whole entry): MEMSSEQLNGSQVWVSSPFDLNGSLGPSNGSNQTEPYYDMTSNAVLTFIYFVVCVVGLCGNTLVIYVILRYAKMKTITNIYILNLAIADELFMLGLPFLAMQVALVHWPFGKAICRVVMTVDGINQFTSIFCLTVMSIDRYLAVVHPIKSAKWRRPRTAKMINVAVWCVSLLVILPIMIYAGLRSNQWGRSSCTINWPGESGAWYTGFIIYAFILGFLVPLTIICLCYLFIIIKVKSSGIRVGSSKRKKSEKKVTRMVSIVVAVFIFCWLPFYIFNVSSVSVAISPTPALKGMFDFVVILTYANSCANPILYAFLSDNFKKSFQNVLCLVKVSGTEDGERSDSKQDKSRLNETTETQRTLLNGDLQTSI
Sequence of Somatostatin receptor type 3 (P30936 whole entry): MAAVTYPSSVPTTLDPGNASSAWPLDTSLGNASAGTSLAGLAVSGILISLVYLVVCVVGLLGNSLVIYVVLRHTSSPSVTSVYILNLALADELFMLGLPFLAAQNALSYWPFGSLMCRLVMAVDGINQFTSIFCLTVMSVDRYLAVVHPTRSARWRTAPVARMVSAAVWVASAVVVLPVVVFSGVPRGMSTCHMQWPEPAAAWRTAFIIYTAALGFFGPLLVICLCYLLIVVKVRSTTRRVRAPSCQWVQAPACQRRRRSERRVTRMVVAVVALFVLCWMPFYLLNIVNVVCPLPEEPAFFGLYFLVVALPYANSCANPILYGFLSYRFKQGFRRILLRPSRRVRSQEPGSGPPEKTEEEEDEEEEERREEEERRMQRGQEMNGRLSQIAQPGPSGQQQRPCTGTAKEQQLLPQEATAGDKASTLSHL
Sequence of Somatostatin receptor type 2 (Rattus norvegicus, UniProt P30680) (P30680 whole entry): as the sequence (P30875 whole entry) above, with M3L, S4T, L8F, V15I, S16P, C168G, T335A counted along it
Sequence of Somatostatin receptor type 2 (Homo sapiens, UniProt P30874) (P30874 whole entry): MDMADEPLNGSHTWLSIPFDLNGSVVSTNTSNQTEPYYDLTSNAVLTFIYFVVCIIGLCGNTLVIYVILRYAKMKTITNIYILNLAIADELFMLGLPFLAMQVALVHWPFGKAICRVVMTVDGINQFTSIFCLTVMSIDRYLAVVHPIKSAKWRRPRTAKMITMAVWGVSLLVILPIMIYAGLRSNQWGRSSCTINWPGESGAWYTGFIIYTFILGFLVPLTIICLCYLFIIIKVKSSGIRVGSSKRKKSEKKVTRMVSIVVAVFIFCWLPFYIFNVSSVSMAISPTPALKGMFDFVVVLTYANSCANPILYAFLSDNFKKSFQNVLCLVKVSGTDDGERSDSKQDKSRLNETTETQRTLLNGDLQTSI

A word on the Ki: it is the dissociation constant of the complex between target and ligand, obtained from inhibition or displacement. A lower Ki goes with tighter binding. `CC(C)NCc1ccc(C[C@@H]2NC(=O)[C@@H](Cc3c[nH]c4ccccc34)NC(=O)[C@H](Cc3ccccc3)NC(=O)[C@H](Cc3ccccc3)NC(=O)[C@H](CCCCN)NC(=O)[C@@H](N)CSSC[C@@H](C(=O)O)NC(=O)[C@H](CO)NC(=O)[C@H]([C@@H](C)O)NC(=O)[C@H](Cc3ccccc3)NC(=O)[C@H]([C@@H](C)O)NC2=O)cc1` [CH-275] (H-CKFF[dW][Phe(4-CH2NHiPr)]TFTSC-OH; disulfide 1-11): the Ki in assay [1] was 0.874 µM; in assay [2], 0.0018 µM and 0.0049 µM; in assay [3], 1 µM; in assay [4] it was 1 µM.
Compound `CSCC[C@H](NC(=O)[C@H](C)NC(=O)[C@@H]1CCCN1C(=O)[C@H](CC(N)=O)NC(=O)[C@H](CO)NC(=O)[C@H](CC(N)=O)NC(=O)[C@H](C)NC(=O)[C@@H](N)CO)C(=O)N[C@@H](C)C(=O)N1CCC[C@H]1C(=O)N[C@@H](CCCNC(=N)N)C(=O)N[C@@H](CCC(=O)O)C(=O)N[C@@H](CCCNC(=N)N)C(=O)N[C@@H](CCCCN)C(=O)N[C@@H](C)C(=O)NCC(=O)N[C@H]1CSSC[C@@H](C(=O)O)NC(=O)[C@H](CO)NC(=O)[C@H]([C@@H](C)O)NC(=O)[C@H](Cc2ccccc2)NC(=O)[C@H]([C@@H](C)O)NC(=O)[C@H](CCCCN)NC(=O)[C@H](Cc2c[nH]c3ccccc23)NC(=O)[C@H](Cc2ccccc2)NC(=O)[C@H](Cc2ccccc2)NC(=O)[C@H](CC(N)=O)NC(=O)[C@H](CCCCN)NC1=O` [L-Ser-L-Ala-L-Asn-L-Ser-L-Asn-L-Pro-L-Ala-L-Met-L-Ala-L-Pro-L-Arg-L-Glu-L-Arg-L-Lys-L-Ala-Gly-L-Cys(1)-L-Lys-L-Asn-L-Phe-L-Phe-L-Trp-L-Lys-L-Thr-L-Phe-L-Thr-L-Ser-L-Cys(1)-OH] displayed a Ki in assay [5] of 0.00081 µM.
For the compound `C[C@@H](O)[C@@H]1NC(=O)[C@H](CCCCN)NC(=O)[C@@H](Cc2c[nH]c3ccccc23)NC(=O)[C@H](Cc2ccccc2)NC(=O)[C@H](Cc2ccccc2)NC(=O)[C@H](N)CSSC[C@H](C(N)=O)NC(=O)[C@H](Cc2ccccc2)NC1=O`, the Ki is 0.101 µM in assay [6]; 0.0041 µM in assay [5]; 0.582 µM in assay [2]; 0.00218 µM in assay [7]; 0.00149 µM and 0.011 µM in assay [4].
On to `CC(C)C1NC(=O)C(CCCCN)NC(=O)C(Cc2c[nH]c3ccccc23)NC(=O)C(Cc2ccc(O)cc2)NC(=O)C(C)N(C)C(=O)C(Cc2ccccc2)NC1=O` (configuration not stated) [CAS_3086456], for which, in assay [8], the inhibitory constant (Ki) is 0.072 µM.
Consider `CC[C@@H]1NC(=O)[C@H](CCCCN)NC(=O)[C@@H](Cc2c[nH]c3ccccc23)NC(=O)[C@H](Cc2ccc(O)cc2)NC(=O)[C@@H](NC(=O)[C@H](N)Cc2ccccc2)CSSC[C@@H](C(=O)N[C@H](C(N)=O)[C@@H](C)O)NC1=O` [D-Phe-L-Cys(1)-L-Tyr-D-Trp-L-Lys-L-Abu-L-Cys(1)-L-Thr-NH2], for which the Ki in assay [6] was 0.00057 µM; in assay [5], 0.092 µM; in assay [8], 0.014 µM.
With `CC(O)[C@H](CO)NC(=O)[C@@H]1CSSCC(NC(=O)C(N)Cc2ccccc2)C(=O)N[C@H](Cc2ccccc2)C(=O)N[C@H](Cc2c[nH]c3ccccc23)C(=O)N[C@H](CCCCN)C(=O)N[C@H](C(C)O)C(=O)N1` (some centres not stated), the Ki in assay [8] stood at 0.017 µM.
Consider `CC(O)[C@@H](NC(=O)[C@H](CCCCN)NC(=O)[C@@H](Cc1c[nH]c2ccccc12)NC(=O)[C@H](Cc1ccccc1)NC(=O)C(Cc1ccccc1)NC(=O)C(N)CS)C(=O)NC(Cc1ccccc1)C(=O)NC(CS)C(N)=O` (some centres not stated) [BIM 23313], for which the Ki came to 0.0553 µM in assay [1]; 0.045 µM in assay [6]; 0.0112 µM in assay [5]; 0.151 µM in assay [2]; 0.00988 µM in assay [8]; 0.00027 µM in assay [7].
As to `CC(C)C1NC(=O)C(CCCCN)NC(=O)C(Cc2c[nH]c3ccccc23)NC(=O)C(Cc2ccc(O)cc2)NC(=O)C(NC(=O)C(N)Cc2ccccc2)CSSCC(C(=O)NC(Cc2c[nH]c3ccccc23)C(N)=O)NC1=O` (configuration not stated) [CAS_71306] (H-FCYWKVCW-NH2; disulfide 2-7; configuration not given here), the Ki in assay [8] worked out at 0.0068 µM.
Take `C[C@@H](O)[C@H](NC(=O)[C@H](Cc1ccccc1)NC(=O)[C@@H](NC(=O)[C@H](CCCCN)NC(=O)[C@@H](Cc1c[nH]c2ccccc12)NC(=O)[C@H](Cc1ccccc1)NC(=O)[C@H](Cc1ccccc1)NC(=O)[C@H](N)Cc1ccccc1)[C@@H](C)O)C(N)=O` [CAS_133073-82-2] (H-[dF]FF[dW]KTFT-NH2): the inhibitory constant (Ki) was 0.069 µM in assay [6]; 0.0035 µM in assay [5]; 0.0024 µM in assay [8]; 0.0119 µM and 0.00558 µM in assay [4].
As to `C[C@@H](O)[C@@H]1NC(=O)[C@H](CCCCN)NC(=O)[C@@H](Cc2c[nH]c3ccccc23)NC(=O)[C@H](Cc2ccccc2)NC(=O)[C@@H](NC(=O)[C@H](N)Cc2ccccc2)CSSC[C@@H](C(=O)N[C@H](CO)[C@@H](C)O)NC1=O`, in assay [5], the affinity, expressed as Ki, was 0.014 µM.
Take `CC(C)[C@@H]1NC(=O)[C@H](CCCCN)NC(=O)[C@@H](Cc2c[nH]c3ccccc23)NC(=O)[C@H](Cc2ccc(O)cc2)NC(=O)[C@@H](NC(=O)[C@H](N)Cc2ccc3ccccc3c2)CSSC[C@@H](C(=O)N[C@H](C(N)=O)[C@@H](C)O)NC1=O` [3-(2-Naphtyl)-D-Ala-L-Cys(1)-L-Tyr-D-Trp-L-Lys-L-Val-L-Cys(1)-L-Thr-NH2]: the inhibition constant (Ki) stood at 0.00147 µM in assay [6], 0.115 µM in assay [5] and 0.023 µM in assay [8].
As to `CC(C)[C@H](NC(=O)[C@H](CCCCN)NC(=O)[C@@H](Cc1c[nH]c2ccccc12)NC(=O)[C@H](Cc1ccc(O)cc1)NC(=O)[C@H](Cc1ccccc1)NC(=O)[C@@H](N)Cc1ccccc1)C(=O)N[C@@H](Cc1ccccc1)C(=O)N[C@H](Cc1cccc2ccccc12)C(N)=O` [BIM 23056] (H-FFY[dW]KVF[d1Nal]-NH2), in assay [8], the Ki stood at 0.536 µM.
Regarding `CC(C)[C@H](NC(=O)[C@H](CCCCN)NC(=O)[C@@H](Cc1c[nH]c2ccccc12)NC(=O)[C@H](Cc1ccc(O)cc1)NC(=O)[C@H](Cc1ccccc1)NC(=O)[C@H](N)Cc1ccccc1)C(=O)N[C@@H](Cc1ccccc1)C(=O)N[C@H](Cc1cccc2ccccc12)C(N)=O` [BIM 23056] (H-[dF]FY[dW]KVF[d1Nal]-NH2), the Ki in assay [1] came to 0.174 µM; in assay [6], 3.4 µM; in assay [5], 0.272 µM; in assay [2], 0.692 µM; in assay [7] it was 0.012 µM; in assay [4], 0.132 µM.
Regarding `C[C@@H](O)[C@@H]1NC(=O)[C@H](CCCCN)NC(=O)[C@@H](Cc2c[nH]c3ccccc23)NC(=O)[C@H](Cc2c[nH]c3ccccc23)NC(=O)[C@H](Cc2ccccc2)NC(=O)CCCCCCNC(=O)[C@H](Cc2ccccc2)NC1=O` [L-362855] (cyclo([Ahp]FW[dW]KTF)), the inhibitory constant (Ki) turned out to be 0.467 µM in assay [1]; 0.012 µM in assay [6]; 0.033 µM in assay [5]; 0.051 µM in assay [8]; 0.00076 µM in assay [7].
In the case of `CC(C)[C@@H]1NC(=O)[C@H](CCCCN)NC(=O)[C@@H](Cc2c[nH]c3ccccc23)NC(=O)[C@H](Cc2ccc(O)cc2)NC(=O)[C@H](C)N(C)C(=O)[C@H](Cc2ccccc2)NC1=O` [CAS_3086456], the figures for the Ki in assay [6], in assay [5] and in assay [7] were 0.00048 µM, 0.045 µM and 0.0155 µM, respectively.
As for `CC(O)[C@H]1NC(=O)[C@H](CCCCN)NC(=O)[C@H](Cc2c[nH]c3ccccc23)NC(=O)[C@H](Cc2ccccc2)NC(=O)[C@@H](Cc2ccccc2)NC(=O)[C@H](N)CSSC[C@H](C(N)=O)NC(=O)[C@H](Cc2ccccc2)NC1=O` (some centres not stated), in assay [8], the Ki came to 0.0034 µM.
Turning to `CC(C)[C@@H]1NC(=O)[C@H](CCCCN)NC(=O)[C@@H](Cc2c[nH]c3ccccc23)NC(=O)[C@H](Cc2ccc(O)cc2)NC(=O)[C@@H](NC(=O)[C@H](N)Cc2ccccc2)CSSC[C@@H](C(=O)N[C@@H](Cc2c[nH]c3ccccc23)C(N)=O)NC1=O` [CAS_71306] (H-[dF]CY[dW]KVCW-NH2; disulfide 2-7), the inhibition constant (Ki) in assay [1] was 0.351 µM; in assay [6], 0.00085 µM; in assay [5], 0.087 µM; in assay [2], 0.481 µM.
In turn, `CC(C)NCc1ccc(C[C@H]2NC(=O)[C@H](Cc3c[nH]c4ccccc34)NC(=O)C(Cc3ccccc3)NC(=O)C(Cc3ccccc3)NC(=O)C(CCCCN)NC(=O)[C@H](N)CSSC[C@H](C(=O)O)NC(=O)[C@@H](CO)NC(=O)[C@H](C(C)O)NC(=O)[C@@H](Cc3ccccc3)NC(=O)C(C(C)O)NC2=O)cc1` (some centres not stated) [CH-275] (H-[dC][ξK][ξF][ξF]W[X2][ξT][dF][Thr(3ξ)][dS][dC]-OH; disulfide 1-11) returned an inhibition constant Ki in assay [8] of 0.632 µM.
Take `CC(O)[C@@H](NC(=O)[C@H](CCCCN)NC(=O)[C@@H](Cc1c[nH]c2ccccc12)NC(=O)[C@H](Cc1ccc(O)cc1)NC(=O)C(Cc1ccccc1)NC(=O)C(N)CS)C(=O)NC(Cc1ccccc1)C(=O)NC(CS)C(N)=O` (some centres not stated) [BIM 23295]: the Ki turned out to be 0.00336 µM in assay [1]; 0.057 µM in assay [6]; 0.0057 µM in assay [5]; 0.0868 µM in assay [2]; 0.00065 µM in assay [8]; 0.00034 µM in assay [7].
